Earlier results, collected in patent publication US20220080020A1, “COMPOSITIONS AND METHODS FOR REDUCING THE TRAN[…] […] USING AN ORAL […] SYSTEM” (priority 2020, published 2022).

Tests used:
ACE2 receptor = settings: prevents covid 19 attachment
[1] = children, xylitol chewing gum or oral solution
[2] = aqueous solution

Structure (SMILES)	competition with the ACE2 receptor (ACE2 receptor)	reduction in the incidence of otitis [1]	solubility (saturated solution) [2]
Cc1cc(O)c2c(c1)C(=O)c1cc(O)cc(O)c1C2=O [Emodin]	compete with the ACE2 receptor	–	–
OC[C@@H](O)[C@H](O)[C@@H](O)CO [xylitol]	–	between a thirty and forty-percent reduction	up to 64.2 grams per 100 ml of solution
